According to PMC10985144, “Design, synthesis, and evaluation of the novel ozagrel–paeonol codrug with antiplatelet aggregation activities as a potent anti-stroke therapeutic agent” (Frontiers in Pharmacology, 2024):
“And” between values parts separate entries of the source, which are not always exact repeats. Identical values can stand only once. Like-named read-outs stand apart in the source and are kept apart here. Each block holds one molecule with its values, some of them ahead of it.

Columns and labels:
[1] = test system: ADP-induced platelet aggregation; assay: ADP-induced platelet aggregation (antiplatelet aggregation activity); format: cell-based; conditions: platelet aggregation induced by ADP (10 μM); mean ± SD, n = 5
Description: (§1) The antiplatelet aggregation activity of the target compounds was evaluated against ADP- and AA-induced platelet aggregation. In other words, different concentrations of the target compound solution and POC ([Zhang J. et al., 2021]) (10 μL) were added to the plasma at 37°C for 5 min. Then, platelets were stimulated with ADP (10 μM, 30 μL) or AA (1 mM, 30 μL). Variations in absorbance were monitored for 5 min in order to measure platelet aggregation ([Daron et al., 2022]). The platelet aggregation inhibition rate (AIR) was calculated according to the following formula: AIR = (rate of aggregation (control)−rate of aggregation (compounds))/rate of aggregation (control) × 100%

[2] = test system: AA-induced platelet aggregation; assay: AA-induced platelet aggregation (antiplatelet aggregation activity); format: cell-based; conditions: platelet aggregation induced by AA (1 μM); mean ± SD, n = 5
Description: as §1, with “Then, platelets were stimulated with ADP (10 μM, 30 μL) or AA (1 mM, 30 μL).” left out

[3] = set-up: method as in Zhang J. et al., 2021; conditions: found in the authors' previous study; ref Zhang J. et al., 2021; cited from earlier work
[4] = test system: OGD/R PC12 cells; assay: Protective effect on OGD/R PC12 cells (oxygen-glucose deprivation), CCK-8; format: cell-based; conditions: Rattus norvegicus, mean ± SD, n = 5, read-out: Cell viability (%)
Description: (§2) For the cell culture conditions, rat pheochromocytoma PC12 cells (ATCC, Manassas, VA, United States) were cultured in RPMI 1640 culture medium with 1% penicillin and streptomycin and 10% fetal bovine serum (FBS) (Gibco, Waltham, MA, United States) at 37°C with 5% CO2.
For oxygen-glucose deprivation of PC12 cell activity, the procedure was conducted as follows ([Wei et al., 2022]): the cells were cultured in a 96-well plate for 24 h. Then, the culture medium was replaced with oxygen–glucose-free RPMI 1640 and placed in an incubator with 5% CO2 and 95% N2 for 2 h. Once the oxygen-free process was completed, the culture medium was changed back to RPMI 1640 and maintained at 37°C with 5% CO2 for an additional 24 h. Cell viability was then assessed using the CCK-8 assay.

[5] = Pharmacokinetic study after single i.g. or i.v. administration to rats; format: in vivo; conditions: for AUC(0-t) / AUC(0-∞) / half-life / MRT last: single 6.4 mg/kg, mean ± SD; for AUC(0-t) / AUC(0-∞) / half-life: n = 6; for MRT last: n = 6, read-out: MRT (0-t) (converted)
Description: Six rats were given compound 8b (6.4 mg/kg) ([Zhang J. et al., 2021]) by intravenous injection (i.v.) and intragastric administration (i.g.), respectively. The animal experiment protocol was performed according to the guidelines for animal experiments and supervised by the Experimental Animal Ethics Committee of Anhui University of Chinese Medicine (AHUCM-rats-2019001). Then, approximately 1.0 mL of blood was taken from the orbital venous plexus of the rats and placed into an EP-containing heparin at predetermined time points of 3, 5, 10, 20, 30, 45, 60, 120, and 240 min after dosing. The blood sample was centrifuged for 15 min at 3,500 rpm to obtain plasma. For plasma preparation, 180 μL of plasma was mixed with 20 μL of glibenclamide as an internal standard and 900 μL of acetonitrile. The mixture was then centrifuged at 12,000 rpm for 10 min. After centrifugation, 800 μL of the supernatant was dried using a vacuum freeze dryer. The dried sample was then reconstituted with 200 μL of acetonitrile for LC/MS analysis. The analytical conditions for the plasma samples are as follows: a Hypersil GOLD C8 HPLC Column (2.1 mm × 100 mm, 1.9μm; Thermo Fisher Scientific, United States) was used for chromatographic separation. The column temperature was maintained at 30°C, and the sample chamber temperature was maintained at 4°C. A gradient elution with a flow rate of 0.2 mL/min (phase A: 0.1% formic acid, phase B: methanol) was carried out from 45% B to 80% within 2.5 min, then from […] to 90% within 1 min, and maintained at 90% for 1 min; subsequently, it was decreased from 90% to 45% in 30 s and maintained for 1 min. Multiple-reaction monitoring (MRM) was quoted as the acquisition mode of mass spectrometry in a positive ionization mode. The mass spectrometry detector was equipped with an electrospray ionization (ESI) source. The optimal MS parameters were as follows: the ion source temperature was set at 400°C, the vaporization temperature was set at 500°C, the electrospray voltage was set to 5500 V, and the capillary voltage was set to 3600 V. The ion pair of 8b is m/z 517.0 and 281.4, and the declustering voltage is 120 eV; the collision energy is 40 eV. Similarly, the ion pair of glibenclamide is m/z 494.1 and 169.0, the declustering voltage is 65 eV, and the collision energy is 50 eV.

[6] = test system: PC12 cells; assay: Viability of PC12 cells, CCK-8 assay; format: cell-based, rat; conditions: 24 h
Description: as §2
Cell viability was assessed using a CCK-8 assay. The PC12 cells were seeded in a 96-well plate at a density of 1 × 10^5 cells per well. After incubation for 24 h, the cells were treated with various concentrations of the compound. After 24 h of re-incubation, the cell viability was evaluated using a 10% CCK-8 solution. The absorbance value was determined at 450 nm.

IC50 [1]: > 1000 µM
IC50 [2]: 692 ± 45.7 µM
Compound: COc1ccc(C(C)=O)c(OCCCCCN2CCN(C(=O)C=Cc3ccc(Cn4ccnc4)cc3)CC2)c1 [PNC4]

IC50 [1]: > 1000 µM
IC50 [2]: 52.5 ± 3.29 µM
Compound: O=C(O)/C=C/c1ccc(Cn2ccnc2)cc1 [Ozagrel, (E)-sodium 4-(1-imidazolomethyl) cinnamate]

IC50 [1]: 842 ± 53.3 µM
IC50 [2]: 349 ± 16 µM
Compound: COc1ccc(C(C)=O)c(OC(=O)C=Cc2ccc(Cn3ccnc3)cc2)c1 [POC, reference compound]
stability [3]: unstable

IC50 [1]: > 1000 µM
IC50 [2]: 462 ± 28.7 µM
Compound: COc1ccc(C(C)=O)c(OCCCN2CCN(C(=O)C=Cc3ccc(Cn4ccnc4)cc3)CC2)c1 [PNC2]

IC50 [1]: 485 ± 31.1 µM
IC50 [2]: 74.7 ± 4.86 µM
time remained detectable in the blood ([5]; i.g.): up to 8 h
MRT i.g. relative to i.v. ([5]; i.g. longer than i.v.): 2.11 times
t1/2 i.g. relative to i.v. ([5]; i.g. longer than i.v.): 2.33 times
AUC(0-t) ([5]; i.g.): 6148.338 ± 2222.737 µg·min/L
AUC(0-∞) ([5]; i.g.): 8346.219 ± 3,719.156 μg/L*min
time within which peak concentration was visible ([5]; i.v.): ≤ 6 h
AUC(0-t) ([5]; i.v.): 18,552.773 ± 7438.264 μg/L*min
AUC(0-∞) ([5]; i.v.): 19,250.669 ± 7673.11 μg/L*min
half-life ([5]; rat, plasma, iv): 125 ± 17.7 min
MRT last ([5]; rat, plasma, iv): 2.5 h
Tmax ([5]; rat, plasma, po, 6.4 mg/kg, i.g., read-out: time of peak concentration in the blood): 1 h
half-life ([5]; rat, plasma, po, i.g.): 291 ± 105 min
MRT last ([5]; rat, plasma, po, i.g.): 5.28 h
AUC by i.g. relative to i.v. ([5]; ratio of AUC(0-t) i.g. vs i.v., 6.4 mg/kg): 33.3% and 33.1%
Compound: COc1ccc(C(C)=O)c(OCCCCN2CCN(C(=O)C=Cc3ccc(Cn4ccnc4)cc3)CC2)c1 [PNC3]
viability at 0.02 µM ([4]; PC-12, 0.02 μM): 50.5 ± 2.95%
viability at 0.04 µM ([4]; PC-12, 0.04 μM): 54.2 ± 2.68%
viability at 0.08 µM ([4]; PC-12, 0.08 μM): 62.3 ± 3.14%
impact on cell viability ([6]; 0–0.16 μM): no impact on cell viability
cell survival rate ([6]; 0.08 μM): 97.52%
cell survival rate ([6]; concentration exceeded 0.16 μM): 94.03%

IC50 [1]: > 1000 µM
IC50 [2]: 234 ± 16.6 µM
Compound: COc1ccc(C(C)=O)c(OCCCNC(=O)C=Cc2ccc(Cn3ccnc3)cc2)c1 [PNC5, 3-(4-((1H-imidazol-1-yl)methyl)phenyl)-N-(3-(2-acetyl-5-metho-xyphenoxy)propyl)acrylamide]
